Laboratory results taken from DBAASP.
≈ marks a conversion by molar mass, not a printed value. Where “and” joins values, the source holds several entries; their conditions need not be identical. Equal entries are not always repeated. Values belong to the compound of their own block, whether it stands above or below them.

Key:
Experiment in all cases: ≥ marks a high value that may be exact or a test limit, other limits are often not marked, values filed in µg/mL are converted to µM
[1] = tested on: Escherichia coli NCTC 10418
[2] = tested on: Candida albicans NCPF 1467
[3] = tested on: Staphylococcus aureus NCTC 10788
[4] = tested on: Enterococcus faecalis NCTC 12697
[5] = tested on: Staphylococcus aureus ATCC 12493
[6] = tested on: Pseudomonas aeruginosa ATCC 27853
[7] = tested on: Candida krusei ATCC 40095
Candida albicans CA1 = tested on: Candida albicans CA1
[8] = tested on: Candida parapsilosis ATCC 90018
[9] = tested on: Candida krusei ATCC 40147
[10] = tested on: Klebsiella pneumoniae ATCC 13866
[11] = tested on: Staphylococcus aureus HNCMO 112011
[12] = tested on: Acinetobacter baumannii ATCC 17978
[13] = tested on: Escherichia coli ATCC 8739
[14] = tested on: Staphylococcus epidermidis NBRC 12993
[15] = tested on: Candida viswanathii NBRC 10321
[16] = tested on: Micrococcus luteus NBRC 3333
[17] = tested on: Escherichia coli NBRC 3972
[18] = tested on: Aspergillus oryzae NBRC 100959
[19] = tested on: Pseudomonas putida NBRC 100650
[20] = tested on: Lacticaseibacillus rhamnosus 1.0911
[21] = tested on: Lactiplantibacillus plantarum 8014
[22] = tested on: Lacticaseibacillus rhamnosus 1.0925
[23] = tested on: Lacticaseibacillus rhamnosus 1.0385
[24] = tested on: Staphylococcus aureus ATCC 29213
[25] = tested on: Lacticaseibacillus rhamnosus 7469
[26] = tested on: Staphylococcus epidermidis ATCC 12228
[27] = tested on: Lacticaseibacillus rhamnosus 1.0386
[28] = tested on: Escherichia coli ATCC 25922
[29] = tested on: Staphylococcus aureus ATCC 43300
Escherichia coli UB1005 = tested on: Escherichia coli UB1005
Streptococcus mutans = tested on: Streptococcus mutans
Staphylococcus aureus MR = tested on: Staphylococcus aureus MR
[30] = tested on: Candida parapsilosis ATCC 22019
[31] = tested on: Streptococcus agalactiae ATCC 12386
[32] = tested on: Streptococcus pneumoniae ATCC 49619
[33] = tested on: Streptococcus dysgalactiae
Listeria monocytogenes = tested on: Listeria monocytogenes
Candida krusei ATCC 6258 = tested on: Candida krusei ATCC 6258
Candida glabrata = tested on: Candida glabrata
Streptococcus salivarius = tested on: Streptococcus salivarius
Streptococcus oralis = tested on: Streptococcus oralis
Klebsiella pneumoniae = tested on: Klebsiella pneumoniae
[34] = tested on: Streptococcus lutetiensis
[35] = tested on: Streptococcus pyogenes ATCC 19615
Streptococcus equi = tested on: Streptococcus equi
Candida albicans = tested on: Candida albicans
Pasteurella multocida = tested on: Pasteurella multocida

SMILES: CC[C@H](C)[C@H](NC(=O)[C@@H](NC(=O)CNC(=O)[C@@H]1CCCN1C(=O)[C@@H](NC(=O)[C@@H](NC(=O)[C@H](CC(N)=O)NC(=O)[C@H](C)NC(=O)[C@H](C)NC(=O)[C@@H](NC(=O)[C@H](CCCCN)NC(=O)[C@H](CC(C)C)NC(=O)[C@@H](NC(=O)CNC(=O)[C@@H]1CCCN1C(=O)[C@H](CC(C)C)NC(=O)[C@@H](N)Cc1ccccc1)[C@@H](C)CC)C(C)C)C(C)C)C(C)C)C(C)C)C(=O)O [FLPGILKVAANVVPGVI]
MIC [1]: ≥ 512 µM | MIC [2]: ≥ 512 µM | MIC [3]: ≥ 512 µM | MIC [4]: ≥ 512 µM | MIC [5]: ≥ 512 µM | MIC [6]: > 512 µM

SMILES: CC[C@H](C)[C@H](NC(=O)[C@H](C)NC(=O)[C@H](CCCCN)NC(=O)[C@H](CC(C)C)NC(=O)[C@H](C)NC(=O)[C@H](Cc1c[nH]c2ccccc12)NC(=O)[C@H](CCCCN)NC(=O)[C@H](C)NC(=O)[C@H](CC(C)C)NC(=O)[C@@H](NC(=O)CNC(=O)[C@H](Cc1c[nH]c2ccccc12)NC(=O)[C@@H](N)Cc1ccccc1)[C@@H](C)O)C(=O)O [FWGTLAKWALKAI]
MIC [7]: 10 µM and 20 µM | MIC (Candida albicans CA1): 10 µM (≈ 15 µg/mL) | MIC [8]: 20 µM (≈ 30.1 µg/mL) | MIC [9]: 10 µM (≈ 15 µg/mL)

SMILES: NC(=O)CC[C@H](NC(=O)[C@H](Cc1c[nH]c2ccccc12)NC(=O)[C@H](Cc1c[nH]c2ccccc12)NC(=O)[C@H](Cc1c[nH]c2ccccc12)NC(=O)[C@H](CCC(N)=O)NC(=O)[C@H](Cc1c[nH]c2ccccc12)NC(=O)[C@H](CCCN=C(N)N)NC(=O)[C@@H](N)CCCN=C(N)N)C(=O)N[C@@H](Cc1c[nH]c2ccccc12)C(=O)N[C@@H](CCCN=C(N)N)C(=O)N[C@@H](CCCN=C(N)N)C(N)=O [RRWQWWWQWRR]
MIC [20]: ≥ 64 µM | MIC [21]: 8 µM (≈ 14.6 µg/mL) | MIC [22]: ≥ 64 µM | MIC [23]: ≥ 64 µM | MIC [24]: 4 µM (≈ 7.32 µg/mL) | MIC [25]: ≥ 64 µM | MIC [26]: 4 µM (≈ 7.32 µg/mL) | MIC [27]: 16 µM (≈ 29.3 µg/mL) | MIC [28]: 4 µM (≈ 7.32 µg/mL) | MIC [29]: 4 µM (≈ 7.32 µg/mL) | MIC (Escherichia coli UB1005): 4 µM (≈ 7.32 µg/mL) | MIC [6]: 4 µM (≈ 7.32 µg/mL)

SMILES: CC[C@H](C)[C@H](NC(=O)CNC(=O)[C@H](CC(=O)O)NC(=O)CNC(=O)[C@H](CC(C)C)NC(=O)[C@H](CCCN=C(N)N)NC(=O)[C@H](CCCCN)NC(=O)[C@H](CC(C)C)NC(=O)[C@H](CC(C)C)NC(=O)[C@H](CO)NC(=O)[C@H](CCCN=C(N)N)NC(=O)[C@H](CCCN=C(N)N)NC(=O)[C@H](CCCCN)NC(=O)[C@@H](NC(=O)[C@H](CCCCN)NC(=O)[C@@H](N)CO)[C@@H](C)O)C(=O)N[C@@H](CCCN=C(N)N)C(=O)NCC(=O)N[C@@H](Cc1ccccc1)C(=O)N[C@@H](Cc1c[nH]c2ccccc12)C(=O)N[C@@H](CC(N)=O)C(=O)NCC(=O)N[C@@H](Cc1ccccc1)C(=O)N[C@@H](CCCN=C(N)N)C(=O)NCC(=O)N[C@@H](CCCN=C(N)N)C(=O)N[C@@H](CCCCN)C(=O)O [SKTKRRSLLKRLGDGIRGFWNGFRGRK]
MIC (Streptococcus mutans): 20.1 µM (≈ 64 µg/mL) | MIC (Staphylococcus aureus MR): 10 µM (≈ 32 µg/mL) | MIC [30]: 10 µM (≈ 32 µg/mL) | MIC [31]: 20.1 µM (≈ 64 µg/mL) | MIC [32]: 20.1 µM (≈ 64 µg/mL) | MIC [33]: 20.1 µM (≈ 64 µg/mL) | MIC (Listeria monocytogenes): 20.1 µM (≈ 64 µg/mL) | MIC [24]: 10 µM and 6.27 µM | MIC (Candida krusei ATCC 6258): 20.1 µM (≈ 64 µg/mL) | MIC (Candida glabrata): 20.1 µM (≈ 64 µg/mL) | MIC (Streptococcus salivarius): 10 µM (≈ 32 µg/mL) | MIC (Streptococcus oralis): 20.1 µM (≈ 64 µg/mL) | MIC (Klebsiella pneumoniae): > 20.1 µM | MIC [34]: 20.1 µM (≈ 64 µg/mL) | MIC [35]: 20.1 µM (≈ 64 µg/mL) | MIC (Streptococcus equi): 20.1 µM (≈ 64 µg/mL) | MIC (Candida albicans): > 20.1 µM | MIC (Pasteurella multocida): 20.1 µM (≈ 64 µg/mL) | MIC [6]: > 20.1 µM

Now from value to compound:

MIC [10]: ≥ 34.3 µM | MIC [6]: 4.28 µM (≈ 8 µg/mL)
SMILES: CC[C@H](C)[C@H](NC(=O)CN)C(=O)N[C@@H](Cc1cnc[nH]1)C(=O)NCC(=O)N[C@H](C(=O)N[C@H](C(=O)N[C@@H](CCCN=C(N)N)C(=O)N[C@@H](CO)C(=O)N[C@@H](Cc1ccccc1)C(=O)N[C@@H](CCSC)C(=O)N[C@@H](CCCN=C(N)N)C(=O)N[C@@H](CCSC)C(=O)N[C@@H](CC(C)C)C(=O)NCC(=O)N[C@@H](Cc1cnc[nH]1)C(=O)N[C@@H](CC(C)C)C(=O)NCC(=O)O)C(C)C)C(C)C [GIHGVVRSFMRMLGHLG]

MIC [11]: 3.1 µM (≈ 8.54 µg/mL) | MIC [12]: 3.1 µM (≈ 8.54 µg/mL) | MIC [13]: 3.1 µM (≈ 8.54 µg/mL)
SMILES: CC[C@H](C)[C@H](NC(=O)[C@H](CCCCN)NC(=O)[C@H](CCCCN)NC(=O)[C@H](C)NC(=O)[C@H](CC(C)C)NC(=O)[C@H](C)NC(=O)[C@H](C)NC(=O)[C@H](CC(C)C)NC(=O)[C@H](C)NC(=O)[C@H](CCCCN)NC(=O)[C@H](CCCN=C(N)N)NC(=O)[C@H](CCCN=C(N)N)NC(=O)[C@H](CCCN=C(N)N)NC(=O)[C@H](CS)NC(=O)[C@H](Cc1ccc(O)cc1)NC(=O)[C@H](CC(C)C)NC(=O)[C@@H]1CCCN1C(=O)[C@H](CCCN=C(N)N)NC(=O)[C@H](CCCN=C(N)N)NC(=O)[C@H](CS)NC(=O)[C@H](CCC(N)=O)NC(=O)[C@@H](N)CCC(N)=O)C(=O)N[C@@H](CC(C)C)C(=O)O [QQCRRPLYCRRRKALAALAKKIL]

MIC [14]: ≥ 69.8 µM | MIC [15]: 17.5 µM (≈ 25 µg/mL) | MIC [16]: 17.5 µM (≈ 25 µg/mL) | MIC [17]: 8.73 µM (≈ 12.5 µg/mL) | MIC [18]: 17.5 µM (≈ 25 µg/mL) | MIC [19]: 17.5 µM (≈ 25 µg/mL)
SMILES: CC[C@H](C)[C@H](NC(=O)[C@H](CCCCN)NC(=O)[C@@H](N)CCCN=C(N)N)C(=O)N[C@@H](CCCCN)C(=O)N[C@H](C(=O)N[C@@H](Cc1ccc(O)cc1)C(=O)N[C@@H](CC(C)C)C(=O)N1CCC[C@H]1C(=O)N[C@@H](CCCN=C(N)N)C(=O)N[C@@H](CCSC)C(=O)N[C@@H](CCCCN)C(=O)O)C(C)C [RKIKVYLPRMK]
